According to patent publication US6673827B1, “Methods of treating fungal infections with inhibitors of NAD synthetase enzyme” (priority 1999, dated 2004):
Like-named read-outs stand apart in the source and are kept apart here.

Experiments:
[1] = tested on: Candida albicans (ATCC 10231); assay: Minimum Inhibitory Concentration (MIC) against yeast, broth dilution; type: cell-based; settings: for MIC: Candida albicans, read-out: MIC Candida albicans (ATCC 10231)
[2] = biological target: T1, NAD synthetase (recombinant protein from B. subtilis; purified) (Bacillus subtilis, UniProt P08164); assay: NAD synthetase enzyme inhibition assay (coupled enzymatic assay, HTS); type: biochemical
T1 construct: made in house
T1 sequence (P08164 whole entry): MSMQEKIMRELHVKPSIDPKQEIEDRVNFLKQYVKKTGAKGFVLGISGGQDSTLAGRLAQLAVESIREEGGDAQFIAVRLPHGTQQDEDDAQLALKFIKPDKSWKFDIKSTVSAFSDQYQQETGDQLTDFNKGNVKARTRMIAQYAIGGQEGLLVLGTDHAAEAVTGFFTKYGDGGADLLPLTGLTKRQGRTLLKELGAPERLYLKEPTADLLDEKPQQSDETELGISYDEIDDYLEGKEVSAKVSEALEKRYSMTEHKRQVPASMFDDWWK
Protocol: NAD Synthetase Enzyme Inhibition Assay-Determination of Test Compound Concentrations Providing 50% Inhibition ([…]) of the Maximum Enzyme Rate
The potential inhibitory activity of the synthetic compounds was determined by the use of a coupled enzymatic assay. The coupled assay involves two steps as summarized below. [drawing 98]
The measurement of inhibitory activities of the test compounds was facilitated by the use of a high through-put screening system (HTS system). The HTS system utilizes an integrated Sagian 2M ORCA robotic system coordinating the functions of a Beckman Biomek 2000 liquid handler and a Molecular Devices SpectraMax Plus spectrophotometer. The 2M ORCA robotic station is responsible for the movement of all hardware and the integration of multiple stations on the worksurface. The Biomek 2000 is programmed to perform all phases of liquid dispensing and mixing. The SpectraMax Plus spectrophotometer is equipped to monitor absorbance in a 96-well plate format.
The Biomek 2000 mixes these components utilizing a predefined mixing program. […] The reaction is monitored by measuring the increase in absorbance at 340 nm (NADH). The linear portion of the reaction is monitored for 180 sec. The initial velocity is determined using Softmax Pro, the software supplied with the Molecular Devices SpectrMax Plus spectrophotometer.
The test compounds were supplied as a stock solution with a concentration of 50 mM dissolved in 100% dimethyl sulfoxide (DMSO). An initial screen was conducted on all compounds using a 2 or 3 concentration screen. The 2 panel screen used concentrations of 0.2 mM and 0.1 mM for the compounds. The 3 panel screen used concentrations of 0.2 mM, 0.1 mM, and 0.05 mM. […] The IC50 values for each compound were determined graphically from a plot of % inhibition versus […].

[3] = tested on: Candida tropicalis ATCC 750; assay: In vitro study of inhibition of growth and lethality against yeast (MIC/MLC susceptibility test), isolate A; type: cell-based; settings: Candida tropicalis, 2nd pair of lines, isolate assigned by line order; for MFC: ATCC750, read-out: Minimum Lethal Conc. (MLC)
[4] = tested on: Candida tropicalis ATCC 28707; assay: In vitro study of inhibition of growth and lethality against yeast (MIC/MLC susceptibility test), isolate B; type: cell-based; settings: Candida tropicalis, 1st pair of lines, isolate assigned by line order; for MFC: ATCC28707, read-out: Minimum Lethal Conc. (MLC)
[5] = tested on: Candida albicans KJP-000531594; assay: In vitro study of inhibition of growth and lethality against yeast (MIC/MLC susceptibility test), isolate C; type: cell-based; settings: Candida albicans, Candida albicans, 1st pair of lines; for MFC: KJP000531594, read-out: Minimum Lethal Conc. (MLC)
[6] = tested on: Candida albicans LH-000664533; assay: In vitro study of inhibition of growth and lethality against yeast (MIC/MLC susceptibility test), isolate D; type: cell-based; settings: Candida albicans, Candida albicans, 2nd pair of lines, isolate assigned by line order; for MFC: LH000664533, read-out: Minimum Lethal Conc. (MLC)
[7] = tested on: Torulopsis glabrata JHC-BC9951635; assay: In vitro study of inhibition of growth and lethality against yeast (MIC/MLC susceptibility test), isolate E; type: cell-based; settings: Torulopsis glabrata, 2nd pair of lines, isolate assigned by line order; for MIC / MFC: Nakaseomyces glabratus; for MFC: JHCBC9951635, read-out: Minimum Lethal Conc. (MLC)
[8] = tested on: Torulopsis glabrata ERH-BC9938274; assay: In vitro study of inhibition of growth and lethality against yeast (MIC/MLC susceptibility test), isolate F; type: cell-based; settings: Torulopsis glabrata, 1st pair of lines, isolate assigned by line order; for MIC / MFC: Nakaseomyces glabratus; for MFC: ERHBC9938274, read-out: Minimum Lethal Conc. (MLC)
[9] = tested on: Cryptococcus neoformans DLB-1027594CNC; assay: In vitro study of inhibition of growth and lethality against yeast (MIC/MLC susceptibility test), isolate G; type: cell-based; settings: Cryptococcus neoformans, DLB1027594CNC, Cryptococcus neoformans, 1st pair of lines, isolate assigned by line order; for MFC: read-out: Minimum Lethal Conc. (MLC)
[10] = tested on: Cryptococcus neoformans SLP-BC0012854; assay: In vitro study of inhibition of growth and lethality against yeast (MIC/MLC susceptibility test), isolate H; type: cell-based; settings: Cryptococcus neoformans, Cryptococcus neoformans, 2nd pair of lines, isolate assigned by line order; for MFC: SLPBC0012854, read-out: Minimum Lethal Conc. (MLC)
[11] = tested on: Candida tropicalis (ATCC 28707-amphotericin B-resistant); assay: Minimum Inhibitory Concentration (MIC) against yeast, broth dilution; type: cell-based; settings: Candida tropicalis, ATCC28707, 37° C., 20 hours, mean of duplicate
[12] = tested on: Candida tropicalis (ATCC 750); assay: as above; type: cell-based; settings: Candida tropicalis, ATCC750; 37° C., 20 hours, mean of duplicate
[13] = 37° C., 20 hours, mean of duplicate
[14] = IC50 (μg/mL) for Inhibit. of NAD Synthetase, table of structures used in the yeast assay (Example 4)
[15] = ATCC750, 24 h, read at 24 hr, read-out: Minimum Inhibitory Conc. (MIC), 24 hr.
[16] = ATCC750, 48 h, read at 48 hr, read-out: Minimum Inhibitory Conc. (MIC), 48 hr.
[17] = ATCC28707, 24 h, read at 24 hr, read-out: Minimum Inhibitory Conc. (MIC), 24 hr.
[18] = ATCC28707, 48 h, read at 48 hr, read-out: Minimum Inhibitory Conc. (MIC), 48 hr.
[19] = KJP000531594, 24 h, read at 24 hr, isolate not given, assigned by line order and MLC of Table 4B, read-out: Minimum Inhibitory Conc. (MIC), 24 hr.
[20] = KJP000531594, 48 h, read at 48 hr, isolate assigned by line order, read-out: Minimum Inhibitory Conc. (MIC), 48 hr.
[21] = LH000664533, 24 h, read at 24 hr, read-out: Minimum Inhibitory Conc. (MIC), 24 hr.
[22] = LH000664533, 48 h, read at 48 hr, read-out: Minimum Inhibitory Conc. (MIC), 48 hr.
[23] = JHCBC9951635, 24 h, read at 24 hr, read-out: Minimum Inhibitory Conc. (MIC), 24 hr.
[24] = JHCBC9951635, 48 h, read at 48 hr, read-out: Minimum Inhibitory Conc. (MIC), 48 hr.
[25] = ERHBC9938274, 24 h, read at 24 hr, read-out: Minimum Inhibitory Conc. (MIC), 24 hr.
[26] = ERHBC9938274, 48 h, read at 48 hr, read-out: Minimum Inhibitory Conc. (MIC), 48 hr.
[27] = 48 h, read at 48 hr, read-out: Minimum Inhibitory Conc. (MIC), 48 hr.
[28] = 72 h, read at 72 hr, read-out: Minimum Inhibitory Conc. (MIC), 72 hr.
[29] = SLPBC0012854, 48 h, read at 48 hr, read-out: Minimum Inhibitory Conc. (MIC), 48 hr.
[30] = SLPBC0012854, 72 h, read at 72 hr, read-out: Minimum Inhibitory Conc. (MIC), 72 hr.

`COC(=O)c1cc2ccccc2n1CCCCCCCCOC(=O)Cc1ccc([N+](C)(C)C)cc1` [Compound 985] was tested, and the “MIC Candida albicans (ATCC 10231)” value [1, 13] was 1.6 µg/mL.
`COC(=O)c1cc2cc(OCc3ccccc3)ccc2n1CCCCCCCOC(=O)c1ccc[n+](C)c1` [Compound 976] was tested, and the “MIC Candida albicans (ATCC 10231)” value [1, 13] was 3.1 µg/mL.
`C[N+](C)(C)c1ccc(CC(=O)OCCCCCCCCn2ccc3cc(OCc4ccccc4)ccc32)cc1` [Compound 749] was tested, and the “MIC Candida albicans (ATCC 10231)” value [1, 13] was 1.6 µg/mL.
For `C[N+](C)(C)c1ccc(CCCC(=O)OCCCCCCCCOc2ccc(OCc3ccccc3)cc2)cc1.[I-]` [Compound 1200], the IC50 [2, 14] was 53.1 µM, the MFC [3] was 1 µg/mL and the “Minimum Inhibitory Conc. (MIC), 24 hr.” value ([3]; read at 24 hr) was 1 µg/mL. The “Minimum Inhibitory Conc. (MIC), 48 hr.” value ([3]; read at 48 hr) was 1 µg/mL, the MIC [3, 15] was 2 µg/mL and the MIC [3, 16] was 2 µg/mL. It also gave an MFC [4] of 1 µg/mL, an MIC [4, 17] of 1 µg/mL and an MIC [4, 18] of 1 µg/mL. It also gave an MIC [5, 19] of 2 µg/mL, an MIC [5, 20] of 2 µg/mL and an MFC ([5]; isolate assigned by line order) of 2 µg/mL. It also gave an MIC [6, 21] of 2 µg/mL, an MIC [6, 22] of 2 µg/mL and an MFC [6] of 2 µg/mL. For the same compound, the MIC [7, 23] was 1 µg/mL, the MIC [7, 24] was 1 µg/mL and the MFC [7] was 1 µg/mL. It also gave an MIC [8, 25] of 1 µg/mL, an MIC [8, 26] of 2 µg/mL and an MFC [8] of 2 µg/mL. It also gave an MIC [9, 27] of 2 µg/mL, an MIC [9, 28] of 2 µg/mL and an MFC [9] of 4 µg/mL. It also gave an MIC [10, 29] of 2 µg/mL, an MIC [10, 30] of 2 µg/mL and an MFC [10] of 4 µg/mL.
`C[N+](C)(C)C(CCc1ccccc1)C(=O)OCCCCCCCCOc1ccc(OCc2ccccc2)cc1.[I-]` (stereo not drawn) [Compound 1260] was tested, and the IC50 [2, 14] was 45.5 µM, the MFC [3] was 2 µg/mL and the MIC [3, 15] was 2 µg/mL. It also gave an MIC [3, 16] of 2 µg/mL, an MFC [4] of 1 µg/mL and an MIC [4, 17] of 1 µg/mL. The MIC [4, 18] was 1 µg/mL, the MIC [5, 19] was 2 µg/mL and the MIC [5, 20] was 2 µg/mL. For the same compound, the MFC ([5]; isolate assigned by line order) was 2 µg/mL, the MIC [6, 21] was 2 µg/mL and the MIC [6, 22] was 2 µg/mL. It also gave an MFC [6] of 4 µg/mL, an MIC [7, 23] of 2 µg/mL and an MIC [7, 24] of 2 µg/mL. For the same compound, the MFC [7] was 2 µg/mL, the MIC [8, 25] was 2 µg/mL and the MIC [8, 26] was 2 µg/mL. For the same compound, the MFC [8] was 2 µg/mL, the MIC [9, 27] was 1 µg/mL and the MIC [9, 28] was 1 µg/mL. The MFC [9] was 2 µg/mL, the MIC [10, 29] was 1 µg/mL and the MIC [10, 30] was 1 µg/mL. The MFC [10] was 2 µg/mL.
For `C[N+](C)(C)c1ccc(CC(=O)OCCCCCCCCOc2ccc(OCc3ccccc3)cc2)cc1.[I-]` [Compound 1094], the IC50 [2] was 20 µM, the IC50 [2, 14] was 31.7 µM and the MIC ([1]; ATCC10231, 37° C., 20 hours, mean of duplicate) was 6.2 µg/mL. It also gave an MIC [11] of 0.78 µg/mL, an MIC [12] of 0.78 µg/mL and an MFC [3] of 4 µg/mL. It also gave an MIC [3, 15] of 1 µg/mL, an MIC [3, 16] of 1 µg/mL and an MFC [4] of 2 µg/mL. The MIC [4, 17] was 0.5 µg/mL, the MIC [4, 18] was 0.5 µg/mL and the MIC [5, 19] was 1 µg/mL. For the same compound, the MIC [5, 20] was 2 µg/mL, the MIC [6, 21] was 2 µg/mL and the MIC [6, 22] was 2 µg/mL. The MFC [6] was 8 µg/mL, the MIC [7, 23] was 0.5 µg/mL and the MIC [7, 24] was 1 µg/mL. The MFC [7] was 4 µg/mL, the “Minimum Inhibitory Conc. (MIC), 24 hr.” value ([7]; read at 24 hr) was 1 µg/mL and the MIC [8, 25] was 0.5 µg/mL. For the same compound, the MIC [8, 26] was 1 µg/mL, the MFC [8] was 4 µg/mL and the “Minimum Inhibitory Conc. (MIC), 24 hr.” value ([8]; read at 24 hr) was 1 µg/mL. For the same compound, the MIC [9, 27] was 1 µg/mL, the MIC [9, 28] was 1 µg/mL and the MFC [9] was 2 µg/mL. The MIC [10, 29] was 1 µg/mL, the MIC [10, 30] was 1 µg/mL and the MFC [10] was 2 µg/mL.
`COC(=O)c1cc2ccccc2n1CCCCCCCOC(=O)Cc1ccc([N+](C)(C)C)cc1` [Compound 984] gave an MIC ([1]; ATCC10231, 20 h) of 0.78 µg/mL.
With `C[n+]1cccc(C(=O)OCCCCCCCCCn2ccc3ccccc32)c1` [Compound 970] the IC50 ([2]; read-out: IC50: concentration of test compound producing 50% inhibition of the NAD synthetase enzyme rate, Table 1, recombinant B. subtilis NAD synthetase, absorbance at 340 nm) was 20 µM and the “MIC Candida albicans (ATCC 10231)” value [1, 13] was 0.8 µg/mL.
`COC(=O)c1cc2cc(OCc3ccccc3)ccc2n1CCCCCCCCOC(=O)c1ccc[n+](C)c1` [Compound 977] was tested, and the “MIC Candida albicans (ATCC 10231)” value [1, 13] was 1.6 µg/mL.
In the case of `COC(=O)c1cc2ccccc2n1CCCCCCCCCOC(=O)Cc1ccc([N+](C)(C)C)cc1` [Compound 986], the “MIC Candida albicans (ATCC 10231)” value [1, 13] is reported as 2.3 µg/mL.
